According to publication PMC9266460, “KSK-74: Dual Histamine H3 and Sigma-2 Receptor Ligand with Anti-Obesity Potential” (International Journal of Molecular Sciences, 2022):

What was measured:
[1] = system: rats fed a palatable diet; conditions: cited from earlier work; for inhibition of weight gain: model of excessive eating
sigma-1 receptor = target: sigma-1 receptor; design: method as in PMID 34908391; conditions: Figure 1; read-out: σ1R Ki; cited from earlier work
sigma-2 receptor = target: sigma-2 receptor; design: method as in PMID 34908391; conditions: Figure 1; read-out: σ2R Ki; cited from earlier work
induced obesity in mice = system: induced obesity in mice; design: method as in PMID 29802412; conditions: i.p. 10 mg/kg b.w. for 14 days; cited from earlier work
H3R = target: T1, H3R (Homo sapiens, UniProt Q9Y5N1); test: Affinity at the H3R (literature values); type: binding; conditions: H3R Ki relative to sigma-2 Ki
T1 construct: the Aequoscreen line co-expresses apoaequorin
T1 sequence (Q9Y5N1 whole entry): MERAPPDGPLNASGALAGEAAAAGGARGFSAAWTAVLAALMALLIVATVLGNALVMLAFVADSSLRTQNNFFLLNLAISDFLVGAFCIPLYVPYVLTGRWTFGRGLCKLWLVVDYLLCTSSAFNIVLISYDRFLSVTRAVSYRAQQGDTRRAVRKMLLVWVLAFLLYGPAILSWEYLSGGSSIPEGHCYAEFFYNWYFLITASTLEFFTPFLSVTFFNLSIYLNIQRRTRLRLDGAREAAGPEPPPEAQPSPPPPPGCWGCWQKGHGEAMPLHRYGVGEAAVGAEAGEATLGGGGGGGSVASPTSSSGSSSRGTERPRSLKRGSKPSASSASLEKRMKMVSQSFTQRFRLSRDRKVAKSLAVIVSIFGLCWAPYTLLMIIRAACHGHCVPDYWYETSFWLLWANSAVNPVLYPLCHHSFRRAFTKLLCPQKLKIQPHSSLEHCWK

[2] = system: obese animal after olanzapine treatment; design: method as in PMID 11985350, PMID 22695490; conditions: cited from earlier work
obese adults = system: obese adults; design: method as in earlier work; conditions: cited from earlier work
[3] = design: method as in PMID 15447739; conditions: cited from earlier work
mice fed a high-fat diet = system: mice fed a high-fat diet; design: method as in PMID 15447739; conditions: highest dose; cited from earlier work
adipose tissue = test: Histological examination of adipose tissue (Masson's trichrome); type: in vivo, female Wistar rats; conditions: palatable diet
Protocol: Adipose tissue samples were prepared for histology using Masson’s trichrome stain (Merck) by fixation in 4% formaldehyde, dehydration in graded alcohol, and embedded in paraffin. The tissue samples were then sectioned using a microtome of 5 μm thickness. Six random fields from each section were analyzed in a blinded manner with an Olympus BX41 light microscope (Olympus, Tokyo, Japan) at magnifications of ×20, ×40 and ×100, and digital images were captured with an Olympus UC90 color camera. The quantitation of the number of adipocytes was performed in eight fields/slide with ×100 objective using an image analysis system: CellSensDimension (Olympus, Tokyo, Japan). The numerical density of the adipocytes was obtained by counting the total number of adipocytes per high-power field ([…]), and then this number was converted to 0.1 mm^2. According to stereometric rules, adipocytes tangent to the left and top edges of the image field were not counted. A semi-quantitative scale was used to assess the inflammatory response in adipose tissue. The following were evaluated on a subjective scale: inflammatory cell infiltration between adipocytes (0—normal, 1—few cells, 2—local clusters, and 3—extensive infiltrates), perivascular infiltration of immune cells (0—normal, 1—few cells, and 2—ring of inflammatory cells), widening of the septum (0—normal and 1—widening), and capillary congestion (0—normal and 1—congestion). A sum calculated from independently assessed values was calculated for each animal as an index of inflammation.

[4] = system: rats fed a palatable diet; test: Model of excessive eating: body weight, calorie intake, fat pads; type: in vivo, female Wistar rats
Protocol: Experiments were performed on female Wistar rats with an initial body weight of 140–160 g. The animals were housed in plastic cages (2 rats per cage) at a constant room temperature of 22 ± 2 °C, with a 12:12 h light/dark cycle. Water and food were available ad libitum. The randomly established experimental groups consisted of 6 rats for pharmacological studies and 3 rats for pharmacokinetic studies. All experiments were conducted in accordance with the Guide to the Care and Use of Experimental Animals, and were approved by the Jagiellonian University in Krakow Local Ethics Committee for Experiments on Animals (Permission No: 185/2017, 220/2019 and 223A/2019).
Female rats were randomly divided into several groups (n = 6) and studied for 4 weeks. The groups were as follows: standard diet + vehicle, palatable diet + vehicle, palatable diet + KSK-60 (1 mg/kg), palatable diet + KSK-60 (10 mg/kg), palatable diet + KSK-74 (1 mg/kg), palatable diet + KSK-74 (10 mg/kg), palatable diet + phentermine (7 mg/kg).
The studies for the 1 mg/kg b.w. and 10 mg/kg b.w. doses were performed at different times, so the parameters studied were compared to the respective control groups.
Rats fed a palatable diet had access to a diet consisting of milk chocolate with nuts, cheese, salted peanuts, and 7% condensed milk, and simultaneously to a standard feed (Labofeed B, Morawski Manufacturer Feed, Poland) for 4 weeks. The water was available ad libitum. Animals had access to palatable products, but also to the standard feed. Most importantly, feeding was not in any way forced, as in other models where animals were fed only a high-fat diet, or temporarily deprived of food (binge eating models). In the case of our model, rats decided themselves when, what, and how much to eat. The weight was evaluated daily. Calorie intake was evaluated three times a week. A palatable diet contained 100 g of peanuts—612 kcal; 100 mL of condensed milk—131 kcal; 100 g of milk chocolate—529 kcal; and 100 g of cheese—325 kcal. The standard diet contained 100 g of feed—280 kcal. Standard diet (fats 8%, carbohydrates 67%, proteins 25%) contained 100 g feed—280 kcal.
The palatable control group (palatable diet + vehicle) received vehicle (1% Tween 80 i.p., daily, for 4 weeks), while palatable test groups were injected i.p. with KSK-60 (1 mg or 10 mg/kg i.p, daily, for 4 weeks), KSK-74 (1 mg/kg or 10 mg/kg i.p, daily, for 4 weeks), or phentermine (7 mg/kg i.p., daily, for 4 weeks), respectively.
On the 31st day, 20 min after i.p. administration of heparin (5000 units/rat) and thiopental (70 mg/kg b.w.), animals were sacrificed, and plasma as well as peritoneal fat pads were collected (food was stopped for 6 h prior to organ, tissue, and plasma collection) for further study.

[5] = system: rats fed a palatable diet; test: Plasma triglyceride and corticosterone levels in the model of excessive eating; type: in vivo, female Wistar rats; conditions: KSK 10 mg/kg, phentermine 7 mg/kg
Protocol: Blood was collected from the left carotid artery and then centrifuged at 600× g (15 min, 4 °C) to obtain plasma.
To determine plasma triglyceride levels, standard enzymatic and spectrophotometric tests (Cat. No 1-053-A150, Biomaxima S.A., Lublin, Poland) were used. The ELISA Kit (Item No. 501320, Cayman Chemical, Ann Arbor, MI, USA) was used to determine corticosterone levels in plasma.

[6] = system: peritoneal adipose tissue; test: Leptin, resistin, IL-6 and MCP-1 levels in adipose tissue (ELISA); type: in vivo, female Wistar rats; conditions: KSK 10 mg/kg i.p., phentermine 7 mg/kg
Protocol: The frozen peritoneal adipose tissue was weighed, and homogenates were prepared by homogenizing 1 g of tissue in 4 mL of 0.1 M phosphate buffer, pH 7.4, using the IKA-ULTRA-TURRAX T8 homogenizer. The adipose tissue homogenates were then used for biochemical assays.
To determine the levels of leptin, resistin, IL-6, and MCP-1 in adipose tissue, the standard ELISA Kit (Cat. No E0561Ra, Cat. No E0211Ra, Cat. No E0135Ra, Cat. No E0193Ra, Bioassay Technology Laboratory, Shanghai, China) was used. To determine the levels of protein, a standard spectrophotometric test (Cat. No 1-008-B210, Biomaxima S.A. Lublin, Poland) was used.

CC(=O)c1ccc(OCCCCCCN2CCN(c3ccncc3)CC2)cc1 [KSK-59]
inhibition of weight gain [1]: high efficacy in inhibiting weight gain | Ki (sigma-1 receptor): 37.8 nM | Ki (sigma-2 receptor): 151 nM

Clc1ccc(CCCOCCCN2CCCCC2)cc1 [Pitolisant]
body weight and metabolic disturbances (induced obesity in mice): positive influence on body weight, glucose tolerance, and lipid profile

CC(=O)c1ccc(OCCCCCCCCN2CCN(c3ccncc3)CC2)cc1 [KSK-73]
affinity ratio H3/sigma-2 receptors (H3R): 0.68 | inhibition of weight gain [1]: high efficacy in inhibiting weight gain | Ki (sigma-1 receptor): 408 nM | Ki (sigma-2 receptor): 59.7 nM

CNCCc1ccccn1 [Betahistine, reference compound]
high-density lipoprotein (HDL) levels, long-term administration ([1]; rat model of excessive eating): increases high-density lipoprotein (HDL) levels | weight gain, long-term administration ([1]; rat model of excessive eating): slows weight gain | body weight [2]: induced significant weight loss | reduction of body weight and waist circumference compared with Orlistat (obese adults): did not show significant differences

CN(C)[C@@H]1CCN(CCCOc2ccc(-c3ccc(C#N)cc3)cc2)C1 [Compound A-331440]
reason for exclusion from clinical trials [3]: genotoxicity | body weight (mice fed a high-fat diet): induced weight loss comparable to mice fed a low-fat diet

CC(C)(N)Cc1ccccc1 [phentermine, reference compound]
capillary congestion and crown-like structures in adipose tissue (adipose tissue; 7 mg/kg): marked capillary congestion and frequent appearance of crown-like structures | inflammatory infiltrates in adipose tissue (histological description) (adipose tissue; KSK 10 mg/kg, phentermine 7 mg/kg): slightly less inflammatory infiltrates | number of adipocytes per 0.1 mm^2 of cross-sectional area (adipose tissue; KSK 10 mg/kg, phentermine 7 mg/kg, means ± SD, n = 6): more similar to the results of the palatable diet + vehicle group | inflammatory index of the adipose tissue (adipose tissue; KSK 10 mg/kg, phentermine 7 mg/kg, standard diet + vehicle 0.5 ± 0.34): 4.16 ± 0.48 | number of rats, Capillary Congestion grade 1-Congestion (adipose tissue; n = 6 per group): 6 | number of rats, Inflammatory Cell Infiltration grade 1-Few Cells (adipose tissue; n = 6 per group): 4 | number of rats, Inflammatory Cell Infiltration grade 2-Local Clusters (adipose tissue; n = 6 per group): 2 | number of rats, Perivascular Infiltration grade 0-Normal (adipose tissue; n = 6 per group): 1 | number of rats, Perivascular Infiltration grade 1-Few Cells (adipose tissue; n = 6 per group): 4 | number of rats, Perivascular Infiltration grade 2-Ring of Cells (adipose tissue; n = 6 per group): 1 | number of rats, Widening of the Septum grade 0-Normal (adipose tissue; n = 6 per group): 1 | number of rats, Widening of the Septum grade 1-Widening (adipose tissue; n = 6 per group): 5 | amount of peritoneal fat pads vs palatable diet + vehicle ([4]; KSK 10 mg/kg, phentermine 7 mg/kg, end of experiment): fewer peritoneal fat pads | calorie intake vs control group fed palatable feed ([4]; i.p. 28 days, KSK 10 mg/kg b.w., phentermine 7 mg/kg b.w.): did not significantly influence the amount of calories consumed | body weight gain vs palatable diet + vehicle ([4]; i.p. daily 4 weeks, KSK-60/KSK-74 10 mg/kg b.w., phentermine 7 mg/kg): gained less weight | plasma triglyceride levels vs palatable diet + vehicle [5]: lower plasma triglyceride levels | resistin levels in adipose tissue vs palatable diet + vehicle [6]: did not influence | leptin levels in adipose tissue ([6]; vs palatable diet + vehicle unless worded otherwise): did not influence
